Experimental data from US20070161691A1, “Modified-protein formation inhibitor” (TOKAI UNIVERSITY, priority 2003, published 2007).

What was measured:
pentosidine formation = test: AGEs (pentosidine) formation inhibiting effect in plasma from dialysis patients; type: biochemical, human; conditions: for Pentosidine formation: 5 mM; for pentosidine formation suppression: plasma from the patients with dialysis
Procedure: Before dialysis, blood samples were obtained from non-diabetic volunteer dialysis patients with renal failure, and fresh heparinized plasma samples were prepared therefrom Pooled plasma obtained from several patients (n=3˜5) was served to the test. 4-(5-phenyltetrazol-1-ylmethyl)-morpholine (Compound 1), 5-methyl-1-(5-phenyltetrazol-1-ylmethyl)-3a,6a-dihydro-1H-pyrrolo[3,4-d][1,2,3]triazole-4,6-dione (Compound 2) or (5-phenyltetrazol-1-yl)methanol (Compound 3) adjusted to a designed concentration ([…]), in DMSO solution (100 μl), was added to the pooled plasma (900 μl) and incubated at 37° C. for 7 days in the presence of air. Then, the amount of pentosidine was measured to estimate the suppressive effect on the glycation of protein.
Measurement of the amount of pentosidine was made as follows: to each incubated sample (50 μL) was added an equal volume of 10% trichloroacetic acid, followed by centrifugation at 5000 g for 5 minutes; after removal of the supernatant, the pellet was washed by 5% trichloroacetic acid (300 μL); the pellet was dried under reduced pressure and then subjected to hydrolysis in 6N HCI solution (100 μL) at 110° C. under nitrogen atmosphere for 16 hours; to the hydrolysate, 5N NaOH (100 μL) and 0.5 M phosphate buffer (pH 7.4) (200 μL) were added, followed by filtration through a porefilter with a pore size of 0.5 μm and dilution with PBS. The concentration of free pentosidine was determined by reversed-phase HPLC using a fluorescence detector (RF-10A, Shimazu Seisakusho) (Miyata, T. et al.: Proc. Natl. Acad. Sci. USA, 93, 2353-2358, 1996). The effluent was monitored at 335/385 nm of excitation/emission wavelength. Synthetic pentosidine was used as the standard. The detection limit of pentosidine was 0.1 pmol/mg protein.
The inhibiting effect was estimated by comparing with positive control (aminoguanidine and pyridoxamine (Sigma)) reacted in the same manner as 4-(5-phenyltetrazol-1-yl-methyl)-morpholine (Compound 1), 5-methyl-1-(5-phenyltetrazol-1-ylmethyl)-3a,6a-dihydro-1H-pyrrolo[3,4-d][1,2,3]triazole-4,6-dione (Compound 2) and (5-phenyltetrazol-1-yl)methanol (Compound 3).

[1] = Vitamin B6 (PLP; pyridoxal phosphate) trapping; type: biochemical; conditions: 500 μM compound, 50 μM PLP, PBS
Procedure: To a solution of vitamin B6, the compound of this invention is added, and after a certain period of time, an amount of vitamin B6 remained is determined.
4-(5-phenyltetrazol-1-ylmethyl)-morpholine (Compound 1), 5-methyl-1-(5-phenyltetrazol-1-ylmethyl)-3a,6a-dihydro-1H-pyrrolo[3,4-d][1,2,3]triazol-4,6-dione (Compound 2) and (5-phenyltetrazol-1-yl)methanol (Compound 3) as well as aminoguanidine as the positive control were each dissolved in DMSO in a designed concentration to make a sample solution. DMSO itself was used as the negative control. In addition, pyridoxal phosphate (PLP) was dissolved in purified-water to make a designed concentration. PBS was added to each of the test compound, the positive control and the negative control, to make a final concentration of 500 μM. The PLP solution as above prepared was added to each of the resultant solution to make a final concentration of 50 μM for preparation of the PLP reaction solution. Using HPLC, the amount of PLP in the PLP reaction solution was determined after 0.1 and 10 hours, from which the PLP trapping amount of each test compound was ascertained.
The analysis of PLP using HPLC was carried out by separation with reverse-phase C18 column (4.6×250 mm, 5 μm; Waters) and by using a fluorescence detector (RF-10A; Shimazu Seisakusho; excitation wavelength, 300 nm and fluorescence wavelength, 400 nm). In the mobile phase, the flow rate was 0.6 mL/min and the concentration of buffer B was varied from 0% to 3% in 25 minutes (buffer A: 0.10% trifluoroacetic acid; buffer B: 80% acetonitrile containing 0.08% trifluoroacetic acid).

[2] = Suppressive effect on the hydroxylation of phenylalanine with hydroxy radical; type: biochemical; conditions: in comparison with pyridoxamine as positive control; 0.1, 0.5, 2.5 mM
Procedure: Phenylalanine (final concentration: 1 mM), test compound (final concentration: 0.1, 0.5, 2.5 mM), hydrogen peroxide (final concentration: 5 mM) and cupric sulfate (final concentration: 0.1 mM) were dissolved in 200 mM of phosphate buffer (pH7.4) (total volume 500 μL), followed by incubation at 37° C. for 4 hours. Then, DTPA (final concent-ration: 1 mM) and 260 unit of catalase were added thereto to interrupt the reaction. The amounts of o-tyrosine and m-tyrosine formed were determined by HPLC in the following manner: after a designed period of time, the reaction mixture was diluted to 100 folds; 20 μL of the dilution was injected onto HPLC, separation was made with C18 column (4.6×250 mm, 5 μm; Nomura Kagaku) and detection was effected using a fluorescence detector (RF-10A: Shimazu Seisakusho) under the condition of an excitation wavelength of 275 nm and a fluorescence wavelength of 305 nm. In the mobile phase, the flow rate was 0.6mL/min and the concentration of buffer B was varied from 6.5% to 10% in 25 minutes (buffer A: 0.10% trifluoroacetic acid; buffer B: 80% acetonitrile containing 0.08% trifluoroacetic acid).

[3] = Suppressing effect on the nitration of tyrosine with peroxynitrite; type: biochemical; conditions: in comparison with pyridoxamine as positive control; 0.1, 0.5, 2.5 and 5 mM
Procedure: According to the method of Pannala, A.S. et al. (Free Radic. Biol. Med., 24:594-606, 1998), the examination was carried out. Namely, tyrosine (final concentration: 100 μM), the test compound (final concentration: 0.1, 0.5, 2.5 and 5 mM) and peroxynitrite (Dojin Kagaku) (final concentration: 500 μM) were dissolved in 200 mM of phosphate buffer (pH7.4) (liquid volume 500 μL) and incubated at 37° C. for 15 minutes. After incubation, the nitrotyrosine formation was determined with HPLC in the following manner: after a predifined time, the reaction mixture (20 μL) was injected onto HPLC, separation was made with C18 column (4.6×250 mm, 5 μm: Waters) and the detection was effected using a ultraviolet detector (RF-10A: Shimazu Seisakusho) at a wavelength of 280 nm. In the mobile phase, the flow rate was 0.6 mL/min and the concentration of buffer B was varied from 5.0% to 30% in 30 minutes (buffer A: 0.10% trifluoroacetic acid; buffer B: 80% acetonitrile containing 0.08% trifluoroacetic acid). 4-Hydroxy-3-nitrobenzoic acid (100 μM) was used as the internal standard.

[4] = Absorbability examination, oral administration to rat; type: in vivo; conditions: 50 mg/kg oral
Procedure: For 4-(5-phenyltetrazol-1-yl methyl)-morpholine (compound 1) and (5-phenyltetrazol-1-yl)methanol (compound 3), their sorbability were examined. Each compounds are suspended in carboxymethyl cellulose in given concentration to prepare sample for oral administration. Then each samples were administered in the ratio of 50 mg/kg to rat using sonde. Five Wister rats (male, 8 weeks aged, closed colony) were used every one group. At one hour, 2 hours, 6 hours and 24 hours after the administration of compound, blood was obtained. The obtained blood samples were immediately cetrifuged at 3000 rpm for 15 minutes to obtain the blood plasma and the concentration of the compound in the specimen was quantitated by HPLC. Briefly, to 100 μL of obtained blood plasma was added to 200 μL of acetonitrile, centrifuged at 12000 rpm for 10 minutes to obtain supernatant, deproteinized and served to HPLC. The measuring condition of HPLC was selected from suitable condition for each compounds to separate and quantify. For example, in case of 4-(5-phenyltetrazol-1-yl methyl)-morpholine (compound 1), separated with reverse-phase C18 column (4.6×250 mm, 5 μm: Waters), and then detected using ultraviolet detector (RF-10A: Shimazu Seisakusho) at 240 nm of wavelength to quantify. In mobile phase, the flow rate is 0.8 mL/min and solvent is water: acetonitrile.

[5] = Acute toxicity examination, single oral administration to mouse; conditions: male, in vivo, ICR mice, single oral administration
Procedure: (§1) For 4-(5-phenyltetrazol-1-ylmethyl)-morpholine (compound 1) and (5-phenyltetrazol-1-yl) methanol (compound 3), acute toxicity test was carried out using mice. Each compounds were suspended in carboxymethyl cellulose in given concentration to prepare sample for oral administration. Then single oral administration was done to mouse. The dose is 100, 250, 500, 1000 and 2000 mg/kg. Five ICR mice (male , 8 weeks aged, closed colony) were used in each group. The test material was administrated to determine LD50 value.

ICR mice = test: as above; conditions: in vivo, po
Procedure: as §1

[6] = plasma from dialysis patients, 37° C., 7 days, DMSO negative control 2.960

PLP trapping [1]	Structure (SMILES)	Pentosidine formation (pentosidine formation; same manner as Table 2) [nmol/mL]	pentosidine formation suppression (pentosidine formation)	Pentosidine formation (pentosidine formation; [6]) [nmol/mL]	also measured
	c1ccc(-c2nnnn2CN2CCSCC2)cc1 [Compound 6, 4-(5-phenyltetrazol-1-ylmethyl)-thiomorpholine]	0.149	suppressed remarkably		
	CN1CCN(Cn2nnnc2-c2ccccc2)CC1 [Compound 5, 1-methyl-4-(5-phenyltetrazol-1-ylmethyl)-piperazine]	0.201	suppressed remarkably		
remarkable PLP trapping	N=C(N)NN [Aminoguanidine, aminoguanidine, reference compound]			2.604	
none	CN1C(=O)C2N=NN(Cn3nnnc3-c3ccccc3)C2C1=O (stereo not drawn) [Compound 2, 5-methyl-1-(5-phenyltetrazol-1-ylmethyl)-3a,6a-dihydro-1H-pyrrolo[3,4-d][1,2,3]triazole-4,6-dione]		suppressed remarkably	0.320	hydroxylation of phenylalanine with hydroxy radical, suppression [2]: suppressed remarkably; nitrotyrosine formation, suppression [3]: suppressed remarkably
	Cc1ncc(CO)c(CN)c1O [Pyridoxamine, pyridoxamine, reference compound]			2.280	
	c1ccc(-c2nnnn2CN2CCN(Cn3nnnc3-c3ccccc3)CC2)cc1 [Compound 7, 1,4-bis-(5-phenyltetrazol-1-ylmethyl)-piperazine]	0.103	suppressed remarkably		
	c1ccc(-c2nnnn2CN2CCNCC2)cc1 [Compound 4, 1-(5-phenyltetrazol-1-ylmethyl)-piperazine]	0.234	suppressed remarkably		

Structure (SMILES)	PLP trapping [1]	Pentosidine formation (pentosidine formation; same manner as Table 2) [nmol/mL]	pentosidine formation suppression (pentosidine formation)	Pentosidine formation (pentosidine formation; [6]) [nmol/mL]	also measured
OCn1nnnc1-c1ccccc1 [Compound 3, (5-phenyltetrazol-1-yl)-methanol]	none		suppressed remarkably	0.026	hydroxylation of phenylalanine with hydroxy radical, suppression [2]: suppressed remarkably; sorbability (plasma concentration after oral administration) [4]: good sorbability; LD50 [5]: > 2000 mg/kg; toxicity (ICR mice): lower toxicity; nitrotyrosine formation, suppression [3]: suppressed remarkably
